From patent US20250092017A1, “2-PIPERIDYL OR 2-PYRAZOLYL SUBSTITUTED PYRIMIDINE COMPOUND SERVING AS EGFR INHIBITOR” (SUZHOU PUHE BIOPHARMA CO., LTD., priority 2022, published 2025)

Tests used:
EGFR (wild-type) = EGFR (wild-type) (Homo sapiens, UniProt P00533); experiment: MSA (Mobility Shift Assay) kinase activity, EGFR wild type; assay type: biochemical; conditions: read-out: EGFR wt/ IC50/nM
Method in brief: (§1)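 Kinase preincubated with compound 10 min at room temperature, then reaction started with ATP plus substrate in 1x kinase buffer and run at room temperature. Substrate-to-product conversion read by mobility shift; % inhibition normalised to no-enzyme and no-compound controls, IC50 from variable-slope four-parameter fit.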

[1] = tested on: Ba/F3-FL-EGFR-del19-C797S; experiment: CellTiter-Glo proliferation, Ba/F3-FL-EGFR-del19-C797S; assay type: cell-based; conditions: 72 h, proliferation, 72 hours, CellTiter-Glo; read-out: Ba/F3-FL-EGFR-del19-C797S IC50/nM
Method in brief: (§2)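 Ba/F3 lines dependent on the indicated EGFR variants were treated with compounds at a final DMSO concentration of 0.1% at 37 °C, 5% CO2. Viability was read by CellTiter-Glo luminescence, and inhibition rate was normalised to DMSO-treated cells (max) and medium-only wells (min). IC50 came from inhibition curves.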

[2] = target: Ba/F3-FL-EGFR-del19/T790M (Homo sapiens, UniProt P00533, DEL746-750/T790M, cells depend on it); experiment: CellTiter-Glo proliferation, Ba/F3-FL-EGFR-del19/T790M; conditions: read-out: Ba/F3-FL-EGFR-del19/T790M IC50/nM, 72 hours
Ba/F3-FL-EGFR-del19/T790M, sequence (P00533 with tags, fused parts or gaps DEL746-750/T790M): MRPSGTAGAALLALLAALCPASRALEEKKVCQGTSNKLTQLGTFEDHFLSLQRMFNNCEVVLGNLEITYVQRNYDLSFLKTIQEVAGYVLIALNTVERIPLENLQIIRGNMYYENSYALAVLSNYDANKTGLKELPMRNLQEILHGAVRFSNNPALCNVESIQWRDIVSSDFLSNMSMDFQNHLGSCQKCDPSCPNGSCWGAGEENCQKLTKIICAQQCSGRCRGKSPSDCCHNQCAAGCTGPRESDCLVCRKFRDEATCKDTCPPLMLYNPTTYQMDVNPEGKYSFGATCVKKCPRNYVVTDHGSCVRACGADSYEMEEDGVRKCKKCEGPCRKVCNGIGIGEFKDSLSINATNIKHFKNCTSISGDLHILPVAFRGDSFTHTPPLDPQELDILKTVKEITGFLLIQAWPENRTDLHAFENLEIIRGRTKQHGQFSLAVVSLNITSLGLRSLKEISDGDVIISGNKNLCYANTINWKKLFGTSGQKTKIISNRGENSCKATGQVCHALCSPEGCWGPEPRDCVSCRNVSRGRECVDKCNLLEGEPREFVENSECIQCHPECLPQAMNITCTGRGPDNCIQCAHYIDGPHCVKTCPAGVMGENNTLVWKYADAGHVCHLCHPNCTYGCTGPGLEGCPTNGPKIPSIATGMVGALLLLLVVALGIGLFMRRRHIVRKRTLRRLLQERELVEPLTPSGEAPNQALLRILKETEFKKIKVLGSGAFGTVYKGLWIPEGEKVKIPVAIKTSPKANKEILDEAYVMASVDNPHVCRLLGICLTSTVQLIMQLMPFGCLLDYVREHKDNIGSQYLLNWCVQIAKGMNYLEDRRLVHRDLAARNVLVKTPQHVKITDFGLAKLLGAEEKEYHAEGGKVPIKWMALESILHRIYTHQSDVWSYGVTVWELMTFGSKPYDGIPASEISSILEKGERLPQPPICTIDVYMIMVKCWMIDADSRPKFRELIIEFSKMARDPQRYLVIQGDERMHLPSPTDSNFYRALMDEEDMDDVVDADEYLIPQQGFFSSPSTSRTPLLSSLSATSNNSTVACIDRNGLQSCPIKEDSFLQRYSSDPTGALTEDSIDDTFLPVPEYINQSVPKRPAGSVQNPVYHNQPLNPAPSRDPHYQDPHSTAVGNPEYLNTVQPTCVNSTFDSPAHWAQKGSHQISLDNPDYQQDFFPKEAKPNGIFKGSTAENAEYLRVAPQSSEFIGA
Experimental: Promega CellTiter-Glo reagent was used to detect the effects of small molecule inhibitors on the proliferation of three Ba/F3 cell lines (Ba/F3-FL-EGFR-de119, Ba/F3-FL-EGFR-de119-T790M, Ba/F3-FL-EGFR-de119-T790M-C797S).
The cell lines were cultured in an incubator at 37° C. and 5% CO2. Cells were passaged regularly and cells in the logarithmic phase were used for plating. 95 μL of cell suspension was added to each well of the cell plate, and culture medium without cells (containing 0.1% DMSO) was added to the Min control wells. Substance addition for compound detection cell plate: 5 μL of 20× compound working solution was added to the cell culture plate. 5 μL of DMSO-cell culture medium mixture was added to the Max control, with the final DMSO concentration of 0.1%. 5 μL of DMSO-cell culture medium mixture was added to the Max control. The final DMSO concentration was 0.1%.
Cell viability was detected by CellTiter-Glo luminescence assay. Data analysis:
The cell proliferation inhibition rate (Inhibition Rate) data was processed using the following formula:
wherein: RLUDrug represents the relative luminescence unit of the cells with the addition of drug, RLUMin represents the luminescence unit of the culture medium, and RLUMax represents the relative luminescence unit of the cells with the addition of DMSO.
The inhibition rates corresponding to different concentrations of compounds were calculated in EXCEL, and then the inhibition rate curve was plotted using GraphPad Prism software and related parameters including the maximum and minimum inhibition rates of cells and IC50 values were calculated.

[3] = tested on: BaF3 (del19/T790M1C797S) tumor cells; experiment: In vivo efficacy assay in BALB/c nude mice, subcutaneous BaF3 tumor; conditions: for TGI: based on final tumor volume
Experimental: In vivo efficacy assay in BALB/c nude mice. Details were as follows:
BaF3 (del19/T790M1C797S) tumor cells were cultured and inoculated into 6-8 weeks old female BALB/c nude mice (weighing about 20 g), with all mice being subcutaneously inoculated. The mice were cultured in an SPF-grade experimental environment, and all mice had free access to commercially certified standard diets. When the average tumor volume of the mice grew to about 150 mm^3, the test compound was orally administered daily. The dosage was as follows: blank group vehicle (DMSO/Solutol/H2O, 5/10/85). […] The tumor volume was measured three times a week with a two-dimensional caliper, and the animals were weighed every day. […] The volume calculation formula is: V=1/2a*b^2, where a represents the long diameter of the tumor, and b represents the short diameter of the tumor.

[4] = target: Ba/F3-FL-EGFR-L858R-T790M-C797S (Homo sapiens, UniProt P00533, T790M/C797S/L858R, cells depend on it); experiment: CellTiter-Glo proliferation, Ba/F3-FL-EGFR-L858R-T790M-C797S; assay type: cell-based; conditions: 72 hours, read-out: Ba/F3-FL-EGFR-L858R-T790M-C797S IC50/nM
Ba/F3-FL-EGFR-L858R-T790M-C797S, sequence (P00533 whole entry T790M/C797S/L858R): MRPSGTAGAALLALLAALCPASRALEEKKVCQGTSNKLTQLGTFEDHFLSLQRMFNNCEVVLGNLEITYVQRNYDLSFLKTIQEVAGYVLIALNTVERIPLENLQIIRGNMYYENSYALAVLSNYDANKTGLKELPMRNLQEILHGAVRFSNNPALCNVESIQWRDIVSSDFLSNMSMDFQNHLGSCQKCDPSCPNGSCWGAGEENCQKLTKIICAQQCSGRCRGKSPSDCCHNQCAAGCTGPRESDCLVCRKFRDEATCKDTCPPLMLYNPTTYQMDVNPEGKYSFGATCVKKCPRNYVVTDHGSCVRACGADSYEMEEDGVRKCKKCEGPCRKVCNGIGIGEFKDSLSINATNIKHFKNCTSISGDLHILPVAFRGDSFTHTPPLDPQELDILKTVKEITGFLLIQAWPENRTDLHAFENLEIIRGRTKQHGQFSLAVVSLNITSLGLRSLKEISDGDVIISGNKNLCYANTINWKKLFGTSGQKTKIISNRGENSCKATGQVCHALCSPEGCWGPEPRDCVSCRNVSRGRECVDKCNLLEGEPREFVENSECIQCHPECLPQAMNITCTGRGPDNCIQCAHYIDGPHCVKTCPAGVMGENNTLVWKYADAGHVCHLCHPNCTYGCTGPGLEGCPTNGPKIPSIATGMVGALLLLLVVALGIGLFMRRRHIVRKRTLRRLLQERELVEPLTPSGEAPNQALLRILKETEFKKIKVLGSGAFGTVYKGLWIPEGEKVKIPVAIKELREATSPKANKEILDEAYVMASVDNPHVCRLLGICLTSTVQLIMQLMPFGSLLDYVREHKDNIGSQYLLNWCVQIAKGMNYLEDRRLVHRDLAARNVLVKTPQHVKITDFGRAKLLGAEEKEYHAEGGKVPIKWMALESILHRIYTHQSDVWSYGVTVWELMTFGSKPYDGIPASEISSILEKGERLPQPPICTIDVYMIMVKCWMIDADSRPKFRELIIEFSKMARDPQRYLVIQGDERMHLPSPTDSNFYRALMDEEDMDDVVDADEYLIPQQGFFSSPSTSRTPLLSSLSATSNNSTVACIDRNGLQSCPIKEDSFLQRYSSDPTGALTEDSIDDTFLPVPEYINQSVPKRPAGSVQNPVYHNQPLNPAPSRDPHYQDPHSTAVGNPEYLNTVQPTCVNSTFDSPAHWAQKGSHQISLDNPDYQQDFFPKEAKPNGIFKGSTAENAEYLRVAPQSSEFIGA
Method in brief: as §2

EGFR (L858R/T790M/C797S) = EGFR (L858R/T790M/C797S) (Homo sapiens, UniProt P00533, C797S/L858R/T790M); experiment: MSA (Mobility Shift Assay) kinase activity, EGFR-L858R-T790M-C797S; assay type: biochemical
EGFR (L858R/T790M/C797S), sequence (P00533 25-1210 T790M/C797S/L858R): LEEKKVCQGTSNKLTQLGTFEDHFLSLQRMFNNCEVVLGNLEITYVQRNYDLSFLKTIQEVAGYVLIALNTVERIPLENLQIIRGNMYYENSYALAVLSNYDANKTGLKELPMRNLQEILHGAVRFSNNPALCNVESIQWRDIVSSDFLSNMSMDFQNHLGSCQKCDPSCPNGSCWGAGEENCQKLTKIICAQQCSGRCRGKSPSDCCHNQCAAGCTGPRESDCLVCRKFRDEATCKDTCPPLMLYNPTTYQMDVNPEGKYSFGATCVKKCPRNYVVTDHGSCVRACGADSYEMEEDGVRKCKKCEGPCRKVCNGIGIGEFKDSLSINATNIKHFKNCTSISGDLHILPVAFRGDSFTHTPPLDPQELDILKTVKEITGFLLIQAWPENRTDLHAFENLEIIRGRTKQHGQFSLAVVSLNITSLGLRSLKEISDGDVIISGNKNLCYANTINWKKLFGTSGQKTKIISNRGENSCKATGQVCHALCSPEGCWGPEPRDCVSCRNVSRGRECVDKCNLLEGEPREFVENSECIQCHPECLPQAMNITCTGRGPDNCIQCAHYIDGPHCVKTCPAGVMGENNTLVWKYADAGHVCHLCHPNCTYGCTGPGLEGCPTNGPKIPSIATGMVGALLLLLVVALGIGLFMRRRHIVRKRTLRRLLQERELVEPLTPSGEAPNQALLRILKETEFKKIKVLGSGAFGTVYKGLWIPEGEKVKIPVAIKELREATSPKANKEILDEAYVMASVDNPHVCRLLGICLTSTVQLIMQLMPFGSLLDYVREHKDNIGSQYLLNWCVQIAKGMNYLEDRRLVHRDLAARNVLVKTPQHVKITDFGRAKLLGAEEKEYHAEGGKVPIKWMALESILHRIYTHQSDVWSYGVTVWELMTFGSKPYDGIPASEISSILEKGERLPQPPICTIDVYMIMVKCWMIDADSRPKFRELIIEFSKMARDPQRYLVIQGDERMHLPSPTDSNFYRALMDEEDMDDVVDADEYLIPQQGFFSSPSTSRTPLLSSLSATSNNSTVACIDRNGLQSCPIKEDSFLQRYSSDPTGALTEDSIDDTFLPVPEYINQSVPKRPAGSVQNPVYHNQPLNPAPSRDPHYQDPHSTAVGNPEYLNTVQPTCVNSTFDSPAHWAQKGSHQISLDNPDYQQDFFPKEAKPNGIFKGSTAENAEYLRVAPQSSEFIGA
Method in brief: as §1

Ba/F3-FL-EGFR-L858R = Ba/F3-FL-EGFR-L858R (Homo sapiens, UniProt P00533, L858R, cells depend on it); experiment: CellTiter-Glo proliferation, Ba/F3-FL-EGFR-L858R; assay type: cell-based; conditions: 72 hours, read-out: Ba/F3-FL-EGFR-L858R IC50/nM
Ba/F3-FL-EGFR-L858R, sequence (P00533 whole entry L858R): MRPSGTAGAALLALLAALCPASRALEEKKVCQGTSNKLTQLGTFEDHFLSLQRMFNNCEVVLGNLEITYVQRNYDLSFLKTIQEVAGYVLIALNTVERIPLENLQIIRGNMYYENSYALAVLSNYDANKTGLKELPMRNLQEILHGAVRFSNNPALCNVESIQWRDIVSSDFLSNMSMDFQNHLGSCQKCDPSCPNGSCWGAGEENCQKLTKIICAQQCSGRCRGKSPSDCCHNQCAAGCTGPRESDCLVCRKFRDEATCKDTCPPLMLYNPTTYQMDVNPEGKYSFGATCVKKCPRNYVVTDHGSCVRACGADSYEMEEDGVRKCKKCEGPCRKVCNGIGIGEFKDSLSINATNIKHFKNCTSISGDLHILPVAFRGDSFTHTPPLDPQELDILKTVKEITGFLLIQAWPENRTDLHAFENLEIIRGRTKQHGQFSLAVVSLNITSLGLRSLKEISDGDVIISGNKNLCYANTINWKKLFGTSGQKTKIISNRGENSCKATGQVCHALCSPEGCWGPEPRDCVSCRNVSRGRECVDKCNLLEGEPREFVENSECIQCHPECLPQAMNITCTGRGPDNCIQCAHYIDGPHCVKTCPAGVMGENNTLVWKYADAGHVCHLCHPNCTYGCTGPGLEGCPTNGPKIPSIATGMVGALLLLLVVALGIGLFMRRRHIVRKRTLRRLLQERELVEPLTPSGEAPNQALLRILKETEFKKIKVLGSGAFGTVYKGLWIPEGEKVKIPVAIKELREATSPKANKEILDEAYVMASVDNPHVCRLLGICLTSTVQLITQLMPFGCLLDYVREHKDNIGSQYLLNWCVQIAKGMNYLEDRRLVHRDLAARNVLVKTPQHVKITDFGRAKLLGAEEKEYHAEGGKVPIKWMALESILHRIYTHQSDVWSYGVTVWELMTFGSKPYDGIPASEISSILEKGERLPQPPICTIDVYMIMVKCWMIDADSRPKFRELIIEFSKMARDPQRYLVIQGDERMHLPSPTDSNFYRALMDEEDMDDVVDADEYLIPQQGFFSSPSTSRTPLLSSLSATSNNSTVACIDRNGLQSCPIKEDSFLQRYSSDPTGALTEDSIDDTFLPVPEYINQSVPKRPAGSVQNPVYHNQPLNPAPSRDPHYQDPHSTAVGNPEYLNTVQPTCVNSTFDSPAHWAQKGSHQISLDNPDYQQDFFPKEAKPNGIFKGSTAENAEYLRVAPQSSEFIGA
Method in brief: as §2

[5] = 100 mg/kg BID oral (50 mg/kg for the first 4 days, 100 mg/kg from the 5th day), after 13 days

| Structure (SMILES) | IC50 (EGFR (wild-type)) | IC50 [1] | GI50 [2] | Tumor volume (mm^3) ([3]; 100 mg/kg, BID, oral, after 13 consecutive days of administration) | TGI ([3]; 100 mg/kg, BID, oral, after 13 consecutive days) | GI50 [4] | IC50 (EGFR (L858R/T790M/C797S)) | GI50 (Ba/F3-FL-EGFR-L858R) | Tumor volume (mm^3) [3, 5] | TGI [3, 5] |
| --- | --- | --- | --- | --- | --- | --- | --- | --- | --- | --- |
| CC(C)c1ccc(N2CC(N(C)S(C)(=O)=O)C2)c2cnc(Nc3ccnc(N4CC[C@@H](O)[C@@H](F)C4)n3)cc12 [Compound P39a] | 9.4 nM | 52 nM | 4.4 nM | 945 mm^3 | 79% | 8.8 nM | 0.05 nM | 18 nM | – | – |
| CC(C)c1ccc(N2C[C@H](CS(C)(=O)=O)[C@H]2C)c2cnc(Nc3ccnc(-c4cnn(S(=O)(=O)C5CC5)c4)n3)cc12 [Compound H12] | 1.9 nM | 4.3 nM | 5.1 nM | – | – | 16 nM | 0.43 nM | 7.7 nM | 1341 mm^3 | 68% |
